According to ChEMBL document CHEMBL5518227, “Discovery of JNJ-1802, a First-in-Class Pan-Serotype Dengue Virus NS4B Inhibitor” (J Med Chem, 2024):

How the values were obtained:
dengue virus type 2 [1] = assay: Antiviral activity against DENV-2 16681 expressing eGFP infected in african green monkey Vero cells incubated with cells for 24 hrs followed by viral infection measured after 3 days by laser microscopic analysis; format: functional, organism-based; details: Dengue virus, 16681, Vero
dengue virus type 4 = assay: Antiviral activity against DENV-4 H241 infected in african green monkey Vero cells incubated for 24 hrs measured after 3 days post infection by RT-PCR analysis; format: functional, organism-based
[2] = Metabolic stability in human hepatocytes assessed as intrinsic clearance measured per million cells incubated upto 120 mins by LC-MS/MS analysis; format: ADME, cell-based, Hepatocyte; details: read-out: CLH
[3] = Clearance in Sprague-Dawley rat at 2.5 mg/kg, iv measured after 24 hrs by LC-MS/MS analysis; format: ADME, organism-based; details: in vivo
[4] = Clearance in Sprague-Dawley rat assessed as liver blood flow at 2.5 mg/kg, iv measured after 24 hrs by LC-MS/MS analysis; format: ADME, organism-based; details: in vivo
[5] = Volume of distribution at steady state in Sprague-Dawley rat at 2.5 mg/kg, iv measured after 24 hrs by LC-MS/MS analysis; format: ADME, organism-based; details: in vivo, read-out: Vdss
[6] = Cmax in Sprague-Dawley rat at 10 mg/kg, po measured after 24 to 48 hrs by LC-MS/MS analysis; format: ADME, organism-based; details: in vivo, time 24-48 hrs
[7] = Oral bioavailability in Sprague-Dawley rat at 10 mg/kg measured after 24 to 48 hrs by LC-MS/MS analysis; format: ADME, organism-based; details: in vivo, time 24-48 hrs
[8] = Thermodynamic solubility of the compound in aqueous buffer at pH 7.4 measured after 24 hrs by UPLC analysis; format: physicochemical; details: read-out: Therm_solubility
[9] = Volume of distribution at steady state in CD-1 mouse at 2.5 mg/kg, iv measured upto 24 hrs by LC-MS/MS analysis; format: ADME, organism-based; details: in vivo, read-out: Vdss
[10] = Cmax in CD-1 mouse at 10 mg/kg, po measured upto 24 hrs by LC-MS/MS analysis; format: ADME, organism-based; details: in vivo
[11] = Oral bioavailability in CD-1 mouse at 10 mg/kg measured upto 24 hrs by LC-MS/MS analysis; format: ADME, organism-based; details: in vivo
[12] = Clearance in CD-1 mouse assessed as liver blood flow at 2.5 mg/kg, iv measured upto 24 hrs by LC-MS/MS analysis; format: ADME, organism-based; details: in vivo
[13] = Clearance in overnight fasted Beagle dog at 0.51 mg/kg, iv measured upto 24 hrs by LC-MS/MS analysis; format: ADME, organism-based, Canis lupus familiaris; details: in vivo
[14] = Clearance in overnight fasted Beagle dog assessed as liver blood flow at 0.51 mg/kg, iv measured upto 24 hrs by LC-MS/MS analysis; format: ADME, organism-based, Canis lupus familiaris; details: in vivo
[15] = Volume of distribution at steady state in overnight fasted Beagle dog at 0.51 mg/kg, iv measured upto 24 hrs by LC-MS/MS analysis; format: ADME, organism-based, Canis lupus familiaris; details: in vivo, read-out: Vdss
[16] = Elimination half life in overnight fasted Beagle dog at 0.51 mg/kg, iv measured upto 24 hrs by LC-MS/MS analysis; format: ADME, organism-based, Canis lupus familiaris; details: in vivo, read-out: beta t1/2 (converted)
[17] = Clearance in 8 hrs fasted cynomolgus monkey assessed as liver blood flow at 1 mg/kg, iv measured upto 24 hrs by LC-MS/MS analysis; format: ADME, organism-based, Macaca fascicularis; details: in vivo
[18] = Volume of distribution at steady state in 8 hrs fasted cynomolgus monkey […] at 1 mg/kg, iv measured upto 24 hrs by LC-MS/MS analysis; format: ADME, organism-based, Macaca fascicularis; details: in vivo, read-out: Vdss
[19] = Cmax in 8 hrs fasted cynomolgus monkey assessed as liver blood flow at 3 mg/kg, po measured upto 24 hrs by LC-MS/MS analysis; format: ADME, organism-based, Macaca fascicularis; details: in vivo
[20] = AUC in 8 hrs fasted cynomolgus monkey assessed as liver blood flow at 3 mg/kg, po measured upto 24 hrs by LC-MS/MS analysis; format: ADME, organism-based, Macaca fascicularis; details: in vivo
[21] = Mutagenicity in Salmonella typhimurium TA7001 in presence or absence of S9 fraction pretreated for 90 mins measured after 48 hrs in dark by AMES test; format: toxicity; details: salmonella enterica subsp. enterica serovar typhimurium, s9, 49.5 h; time 2970 min
mouse P-gp = assay: Efflux ratio of permeability from basolateral to apical side over apical to basolateral side in pig LLC-PK1 cells transfected with mouse P-gp at 1 uM measured upto 120 mins; format: ADME, cell-based, Sus scrofa
[22] = Mutagenicity in Salmonella typhimurium TA98 in presence or absence of S9 fraction pretreated for 90 mins measured after 48 hrs in dark by AMES test; format: toxicity; details: salmonella enterica subsp. enterica serovar typhimurium, s9, 49.5 h; time 2970 min
[23] = Mutagenicity in Salmonella typhimurium TA7002 in presence or absence of S9 fraction pretreated for 90 mins measured after 48 hrs in dark by AMES test; format: toxicity; details: salmonella enterica subsp. enterica serovar typhimurium, s9, 49.5 h; time 2970 min
[24] = Mutagenicity in Salmonella typhimurium TA7004 in presence or absence of S9 fraction pretreated for 90 mins measured after 48 hrs in dark by AMES test; format: toxicity; details: salmonella enterica subsp. enterica serovar typhimurium, s9, 49.5 h; time 2970 min
[25] = Mutagenicity in Salmonella typhimurium TA7005 in presence or absence of S9 fraction pretreated for 90 mins measured after 48 hrs in dark by AMES test; format: toxicity; details: salmonella enterica subsp. enterica serovar typhimurium, s9, 49.5 h; time 2970 min
[26] = Cytotoxicity against african green monkey Vero cells by ATPlite cell viability luminescence assay; format: toxicity, cell-based; details: chlorocebus sabaeus
Cytochrome P450 2C9 = Cytochrome P450 2C9 (Homo sapiens, UniProt P11712); assay: Inhibition of human CYP2C9 preincubated for 5 mins followed by NADPH addition measured after 5 to 30 mins by LC-MS analysis; format: ADME
Cytochrome P450 2C19 = Cytochrome P450 2C19 (Homo sapiens, UniProt P33261); assay: Inhibition of human CYP2C19 preincubated for 5 mins followed by NADPH addition measured after 5 to 30 mins by LC-MS analysis; format: ADME
Cytochrome P450 2D6 = Cytochrome P450 2D6 (Homo sapiens, UniProt P10635); assay: Inhibition of human CYP2D6 preincubated for 5 mins followed by NADPH addition measured after 5 to 30 mins by LC-MS analysis; format: ADME
Cytochrome P450 3A5 = Cytochrome P450 3A5 (Homo sapiens, UniProt P20815); assay: Inhibition of human CYP3A5 preincubated for 5 mins followed by NADPH addition measured after 5 to 30 mins by LC-MS analysis; format: ADME; details: time 10-35 min
dengue virus type 2 [27] = assay: In vivo antiviral activity against DENV-2/RL infected in AG129 mouse assessed as increase in efficacy administered as po bid for 3 days; format: functional, organism-based; details: dose 0.2-60 mg/kg/day, time 3.0 day

Chain of Cytochrome P450 2C19 (P33261 whole entry): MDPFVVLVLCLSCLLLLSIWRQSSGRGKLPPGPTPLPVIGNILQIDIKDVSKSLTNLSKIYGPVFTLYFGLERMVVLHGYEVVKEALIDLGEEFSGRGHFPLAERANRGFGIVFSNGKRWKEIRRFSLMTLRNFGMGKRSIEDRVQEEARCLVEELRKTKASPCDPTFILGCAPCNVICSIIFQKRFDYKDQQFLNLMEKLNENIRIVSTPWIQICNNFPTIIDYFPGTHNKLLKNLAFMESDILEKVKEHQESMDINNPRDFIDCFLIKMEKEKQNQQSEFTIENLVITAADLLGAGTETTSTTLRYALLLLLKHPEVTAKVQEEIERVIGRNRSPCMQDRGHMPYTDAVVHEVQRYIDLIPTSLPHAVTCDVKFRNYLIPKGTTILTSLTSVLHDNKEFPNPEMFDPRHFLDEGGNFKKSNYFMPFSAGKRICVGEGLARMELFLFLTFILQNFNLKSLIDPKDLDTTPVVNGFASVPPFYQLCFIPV
Chain of Cytochrome P450 2D6 (P10635 whole entry): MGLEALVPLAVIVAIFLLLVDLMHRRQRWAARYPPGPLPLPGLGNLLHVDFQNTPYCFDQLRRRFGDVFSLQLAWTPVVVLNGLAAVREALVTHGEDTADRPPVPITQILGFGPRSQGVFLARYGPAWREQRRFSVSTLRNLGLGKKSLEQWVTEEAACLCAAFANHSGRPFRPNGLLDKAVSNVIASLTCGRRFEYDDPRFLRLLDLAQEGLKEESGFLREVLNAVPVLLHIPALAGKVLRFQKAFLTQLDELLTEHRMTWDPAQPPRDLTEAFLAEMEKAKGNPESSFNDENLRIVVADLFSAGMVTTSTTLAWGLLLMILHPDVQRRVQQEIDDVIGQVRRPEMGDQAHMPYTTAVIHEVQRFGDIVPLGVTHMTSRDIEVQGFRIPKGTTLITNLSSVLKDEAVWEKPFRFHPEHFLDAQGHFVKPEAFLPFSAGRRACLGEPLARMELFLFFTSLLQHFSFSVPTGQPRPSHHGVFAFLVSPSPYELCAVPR
Chain of Cytochrome P450 3A5 (P20815 whole entry): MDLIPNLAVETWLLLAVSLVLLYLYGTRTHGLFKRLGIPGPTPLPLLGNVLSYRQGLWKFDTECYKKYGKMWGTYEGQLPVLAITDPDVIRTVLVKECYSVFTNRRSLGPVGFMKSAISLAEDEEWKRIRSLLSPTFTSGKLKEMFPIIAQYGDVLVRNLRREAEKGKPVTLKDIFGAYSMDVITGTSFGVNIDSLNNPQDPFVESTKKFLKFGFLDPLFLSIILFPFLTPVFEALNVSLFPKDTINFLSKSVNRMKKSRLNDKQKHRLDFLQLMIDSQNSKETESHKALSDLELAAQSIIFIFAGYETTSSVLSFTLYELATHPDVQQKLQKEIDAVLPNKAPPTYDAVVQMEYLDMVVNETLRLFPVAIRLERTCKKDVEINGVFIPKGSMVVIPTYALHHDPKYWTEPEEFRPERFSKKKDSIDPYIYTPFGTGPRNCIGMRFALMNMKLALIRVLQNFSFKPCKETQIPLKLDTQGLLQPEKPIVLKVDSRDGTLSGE
Chain of Cytochrome P450 2C9 (P11712 whole entry): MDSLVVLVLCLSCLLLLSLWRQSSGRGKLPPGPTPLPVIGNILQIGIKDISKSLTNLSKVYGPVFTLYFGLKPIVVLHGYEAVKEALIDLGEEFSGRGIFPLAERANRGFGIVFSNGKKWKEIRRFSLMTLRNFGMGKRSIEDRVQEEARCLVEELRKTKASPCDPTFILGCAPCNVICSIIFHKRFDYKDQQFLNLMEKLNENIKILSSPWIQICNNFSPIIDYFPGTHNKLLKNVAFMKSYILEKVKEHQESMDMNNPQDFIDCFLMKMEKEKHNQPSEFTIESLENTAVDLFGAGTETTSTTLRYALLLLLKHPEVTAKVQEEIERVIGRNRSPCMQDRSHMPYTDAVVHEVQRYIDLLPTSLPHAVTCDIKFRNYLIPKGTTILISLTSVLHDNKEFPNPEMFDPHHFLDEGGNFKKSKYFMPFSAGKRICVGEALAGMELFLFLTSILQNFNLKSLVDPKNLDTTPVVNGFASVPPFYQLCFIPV

COc1cc(N[C@H](C(=O)c2c[nH]c3ccc(OC(F)(F)F)cc23)c2ccc(Cl)cc2OC)cc(S(C)(=O)=O)c1 [MOSNODENVIR]
EC50 (dengue virus type 2 [1]): 57 pM | EC50 (dengue virus type 4): 0.011 µM | hepatocyte CLint [2]: < 1.9 µL/min/1e6 cells | clearance [3]: 4.9 mL/min/kg | LBF [4]: 7% | Vd [5]: 4.6 L/kg | Cmax [6]: 629 ng/mL | bioavailability [7]: 58% | solubility thermodynamic at 24 h [8]: < 1 µg/mL | Vd [9]: 2.5 L/kg | Cmax [10]: 2730 ng/mL | bioavailability [11]: 108% | LBF [12]: 4% | clearance [13]: 6.4 mL/min/kg | LBF [14]: 21% | Vd [15]: 3.1 L/kg | half-life [16]: 7.3 h | LBF [17]: 5% | Vd [18]: 1.64 L/kg | Cmax [19]: 613 ng/mL | AUC at 24 h [20]: 8970 ng·h/mL | Activity [21]: Non-Toxic | efflux ratio at 2 h, 1 µM (mouse P-gp): ~4 | Activity [22]: Non-Toxic | Activity [23]: Non-Toxic | Activity [24]: Non-Toxic | Activity [25]: Non-Toxic | CC50 [26]: 2.6 µM | IC50 (Cytochrome P450 2C9): 3.7 µM | IC50 (Cytochrome P450 2C19): 10.3 µM | IC50 (Cytochrome P450 2D6): > 30 µM | inhibition (INH) (Cytochrome P450 3A5): Not Active | Activity (dengue virus type 2 [27]): Dose-Dependent Effect
